# Tested on: NCI-H1618 multicellular tumor spheroid viability
# Assay: Anticancer human tumor NCI-H1618 cell line growth inhibition;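 also: spheroids exposed to agents for 7 days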
# Details: for IC50: curve of first compound; for viability, T/C: stronger effect = lower value
# In short: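 Complex spheroids of malignant cells with endothelial cells and mesenchymal stem cells; agents alone or combined, from near clinical Cmax (or 10 microM if unknown) down in half-log steps, 0.25% DMSO final.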
# [1] = second compound 0.003 µM, first compound 0.0316 µM
# [2] = second compound 0.003 µM, first compound 0.1 µM
# [3] = second compound 0.003 µM, first compound 0.316 µM
# [4] = second compound 0.003 µM, first compound 1 µM
# [5] = second compound 0.003 µM, first compound 3.16 µM
# [6] = second compound 0.003 µM, first compound 10 µM
smiles,measurement,setting,value
CC1COCCN1c1cc(-c2ccnn2C)c2ccnc(-c3ccn[nH]3)c2n1 (stereo not given) + COc1cc2c(cc1O)CCNC21CSC2c3c(OC(C)=O)c(C)c4c(c3C(COC1=O)N1C(O)C3Cc5cc(C)c(OC)c(O)c5C(C21)N3C)OCO4,IC50,second compound 30 pM,< 0.0316 µM
same,IC50,second compound 94.9 pM,< 0.0316 µM
same,IC50,second compound 0.0003 µM,< 0.0316 µM
same,IC50,second compound 0.000949 µM,< 0.0316 µM
same,IC50,second compound 0.003 µM,< 0.0316 µM
same,"viability, T/C","second compound 30 pM, first compound 0.0316 µM",41%
same,"viability, T/C","second compound 30 pM, first compound 0.1 µM",8.59%
same,"viability, T/C","second compound 30 pM, first compound 0.316 µM",2.6%
same,"viability, T/C","second compound 30 pM, first compound 1 µM",1.69%
same,"viability, T/C","second compound 30 pM, first compound 3.16 µM",1.44%
same,"viability, T/C","second compound 30 pM, first compound 10 µM",1.07%
same,"viability, T/C","second compound 94.9 pM, first compound 0.0316 µM",4.76%
same,"viability, T/C","second compound 94.9 pM, first compound 0.1 µM",7.64%
same,"viability, T/C","second compound 94.9 pM, first compound 0.316 µM",1.66%
same,"viability, T/C","second compound 94.9 pM, first compound 1 µM",2.1%
same,"viability, T/C","second compound 94.9 pM, first compound 3.16 µM",0.97%
same,"viability, T/C","second compound 94.9 pM, first compound 10 µM",1.13%
same,"viability, T/C","second compound 0.0003 µM, first compound 0.0316 µM",7.32%
same,"viability, T/C","second compound 0.0003 µM, first compound 0.1 µM",1.52%
same,"viability, T/C","second compound 0.0003 µM, first compound 0.316 µM",2.44%
same,"viability, T/C","second compound 0.0003 µM, first compound 1 µM",1.22%
same,"viability, T/C","second compound 0.0003 µM, first compound 3.16 µM",1.2%
same,"viability, T/C","second compound 0.0003 µM, first compound 10 µM",1.07%
same,"viability, T/C","second compound 0.000949 µM, first compound 0.0316 µM",1.86%
same,"viability, T/C","second compound 0.000949 µM, first compound 0.1 µM",2.16%
same,"viability, T/C","second compound 0.000949 µM, first compound 0.316 µM",1.58%
same,"viability, T/C","second compound 0.000949 µM, first compound 1 µM",1.26%
same,"viability, T/C","second compound 0.000949 µM, first compound 3.16 µM",1.11%
same,"viability, T/C","second compound 0.000949 µM, first compound 10 µM",1.22%
same,"viability, T/C",[1],1.5%
same,"viability, T/C",[2],1.77%
same,"viability, T/C",[3],2.41%
same,"viability, T/C",[4],2.07%
same,"viability, T/C",[5],1.2%
same,"viability, T/C",[6],1.35%
CC(C)n1c(=O)n(C)c2cnc3cc(F)c(-c4ccc(OCCCN5CCCCC5)nc4)cc3c21 + CC[C@@]1(O)C(=O)OCc2c1cc1n(c2=O)Cc2cc3c(CN(C)C)c(O)ccc3nc2-1,IC50,second compound 0.003 µM,> 10 µM
same,IC50,second compound 0.00949 µM,< 0.0316 µM
same,IC50,second compound 0.03 µM,< 0.0316 µM
same,IC50,second compound 0.0949 µM,< 0.0316 µM
same,IC50,second compound 0.3 µM,< 0.0316 µM
same,"viability, T/C",[1],56.8%
same,"viability, T/C",[2],51.4%
same,"viability, T/C",[3],51.9%
same,"viability, T/C",[4],66.7%
same,"viability, T/C",[5],72.7%
same,"viability, T/C",[6],38.1%
same,"viability, T/C","second compound 0.00949 µM, first compound 0.0316 µM",7.93%
same,"viability, T/C","second compound 0.00949 µM, first compound 0.1 µM",4.31%
same,"viability, T/C","second compound 0.00949 µM, first compound 0.316 µM",8.14%
same,"viability, T/C","second compound 0.00949 µM, first compound 1 µM",10.5%
same,"viability, T/C","second compound 0.00949 µM, first compound 3.16 µM",12.8%
same,"viability, T/C","second compound 0.00949 µM, first compound 10 µM",14.4%
same,"viability, T/C","second compound 0.03 µM, first compound 0.0316 µM",4.99%
same,"viability, T/C","second compound 0.03 µM, first compound 0.1 µM",4.95%
same,"viability, T/C","second compound 0.03 µM, first compound 0.316 µM",4.02%
same,"viability, T/C","second compound 0.03 µM, first compound 1 µM",2.3%
same,"viability, T/C","second compound 0.03 µM, first compound 3.16 µM",2.79%
same,"viability, T/C","second compound 0.03 µM, first compound 10 µM",1.82%
same,"viability, T/C","second compound 0.0949 µM, first compound 0.0316 µM",4.98%
same,"viability, T/C","second compound 0.0949 µM, first compound 0.1 µM",3.54%
same,"viability, T/C","second compound 0.0949 µM, first compound 0.316 µM",8.33%
same,"viability, T/C","second compound 0.0949 µM, first compound 1 µM",4.32%
same,"viability, T/C","second compound 0.0949 µM, first compound 3.16 µM",7.17%
same,"viability, T/C","second compound 0.0949 µM, first compound 10 µM",4.95%
same,"viability, T/C","second compound 0.3 µM, first compound 0.0316 µM",4.62%
same,"viability, T/C","second compound 0.3 µM, first compound 0.1 µM",4.88%
same,"viability, T/C","second compound 0.3 µM, first compound 0.316 µM",4.27%
same,"viability, T/C","second compound 0.3 µM, first compound 1 µM",4.09%
same,"viability, T/C","second compound 0.3 µM, first compound 3.16 µM",5.96%
same,"viability, T/C","second compound 0.3 µM, first compound 10 µM",6.01%

# Reference: PubChem BioAssay AID1845206 (Molecular Pharmacology Branch, DTP, NCI, 2023)
